{"source": "paper PMC9686516", "about": "“Pharmacokinetic Characteristics of Nebulized Colistimethate Sodium Using Two Different Types of Nebulizers in Critically Ill Patients with Ventilator-Associated Respiratory Infections” (Antibiotics, 2022)", "conditions": "in vivo", "method": "Subjects were medically followed during the nebulization phase and the post-nebulization period for the development of side effects, especially those related to the respiratory system. In cases of significant hypoxemia and/or bronchospasm, the nebulization and lavage processes were suspended, and the patient was treated as clinically indicated.", "data": [{"substance": "colistimethate sodium [CMS]", "values": [{"measurement": "deterioration of oxygenation during the nebulization", "result": "no instances of clinically important deterioration of oxygenation"}]}]}
